Measurements published in ChEMBL document CHEMBL3885861, “Open TG-GATES”.

Organism: Rattus norvegicus
Test: Open TG-GATES - Regimen: Single
Format: toxicity, organism-based, Sprague-Dawley
Set-up: regimen Single, gender Male, age 6 weeks
Details: in vivo, po, 40 mg/kg, route gavage, dose level Low; for APTT / Bas / Eos / Fbg / Hb / Ht / Lym / MCH / MCHC / MCV / Mono / Neu / PT / Plat / RBC / Ret / WBC: tissue Blood; for KIDNEY_L / KIDNEY_R / KIDNEY_TOTAL: tissue Kidney; for LIVER: tissue Liver; for A/G / ALP / ALT / AST / BUN / CRE / Ca / Cl / DBIL / GLC / IP / K / LDH / Na / PL / RALB / TBIL / TC / TG / TP / gamma-GTP: tissue Plasma

In the case of `Cc1cccc(C)c1OCC(C)N` (configuration not stated) [MEXILETINE], the TERMINAL_BW (3 h) is reported as 218.4 g, the APTT (3 h) is reported as 20.9 s and the Bas (3 h) is reported as 0%. For the same compound, the Eos (3 h) was 0.4%, the Fbg (3 h) was 302.8 mg/dL and the Hb (3 h) was 13.1 g/dL. The Ht (3 h) was 40.8%, the Lym (3 h) was 80.4% and the MCH (3 h) was 20.6 pg. For the same compound, the MCHC (3 h) was 32.1%, the MCV (3 h) was 64.2 fL and the Mono (3 h) was 2.2%. It also gave a Neu (3 h) of 16%, a PT (3 h) of 15.9 s and a Plat (3 h) of 119 x10_4/uL. For the same compound, the RBC (3 h) was 634.2 x10_4/ul, the Ret (3 h) was 7.8% and the WBC (3 h) was 92.2 x10_2/uL. The KIDNEY_L (3 h) was 1 g, the KIDNEY_R (3 h) was 1 g and the KIDNEY_TOTAL (3 h) was 1.9 g. For the same compound, the LIVER (3 h) was 10.2 g, the A/G (3 h) was 1.2 and the ALP (3 h) was 1641.6 IU/L. It also gave an ALT (3 h) of 51 IU/L, an AST (3 h) of 79.6 IU/L and a BUN (3 h) of 13.6 mg/dL. It also gave a CRE (3 h) of 0.2 mg/dL, a Ca (3 h) of 10.7 mg/dL and a Cl (3 h) of 105.6 meq/L. For the same compound, the DBIL (3 h) was 0 mg/dL, the GLC (3 h) was 188.8 mg/dL and the IP (3 h) was 8.8 mg/dL. For the same compound, the K (3 h) was 4 meq/L, the LDH (3 h) was 207.4 IU/L and the Na (3 h) was 142.4 meq/L. The PL (3 h) was 149.2 mg/dL, the RALB (3 h) was 3 g/dL and the TBIL (3 h) was 0.01 mg/dL. For the same compound, the TC (3 h) was 84.4 mg/dL, the TG (3 h) was 67.6 mg/dL and the TP (3 h) was 5.5 g/dL. For the same compound, the gamma-GTP (3 h) was 1.2 IU/L, the TERMINAL_BW (6 h) was 214 g and the APTT (6 h) was 23.3 s. For the same compound, the Bas (6 h) was 0%, the Eos (6 h) was 0.8% and the Fbg (6 h) was 314 mg/dL. It also gave a Hb (6 h) of 13.5 g/dL, a Ht (6 h) of 40.8% and a Lym (6 h) of 83.6%. For the same compound, the MCH (6 h) was 20.9 pg, the MCHC (6 h) was 33.2% and the MCV (6 h) was 63 fL. The Mono (6 h) was 2.6%, the Neu (6 h) was 11.4% and the PT (6 h) was 16 s. The Plat (6 h) was 118.1 x10_4/uL, the RBC (6 h) was 647.4 x10_4/ul and the Ret (6 h) was 7.2%. The WBC (6 h) was 88.1 x10_2/uL, the KIDNEY_L (6 h) was 0.9 g and the KIDNEY_R (6 h) was 0.9 g. The KIDNEY_TOTAL (6 h) was 1.8 g, the LIVER (6 h) was 9.2 g and the A/G (6 h) was 1.2. The ALP (6 h) was 1364.6 IU/L, the ALT (6 h) was 43 IU/L and the AST (6 h) was 72.8 IU/L. For the same compound, the BUN (6 h) was 10.4 mg/dL, the CRE (6 h) was 0.2 mg/dL and the Ca (6 h) was 10.6 mg/dL. For the same compound, the Cl (6 h) was 105.6 meq/L, the DBIL (6 h) was 0 mg/dL and the GLC (6 h) was 180.8 mg/dL. It also gave an IP (6 h) of 8.5 mg/dL, a K (6 h) of 4.2 meq/L and an LDH (6 h) of 153.4 IU/L. It also gave a Na (6 h) of 141 meq/L, a PL (6 h) of 128.8 mg/dL and an RALB (6 h) of 3 g/dL. The TBIL (6 h) was 0.022 mg/dL, the TC (6 h) was 69 mg/dL and the TG (6 h) was 68 mg/dL. For the same compound, the TP (6 h) was 5.5 g/dL, the gamma-GTP (6 h) was 1.4 IU/L and the TERMINAL_BW (9 h) was 217.2 g. For the same compound, the APTT (9 h) was 22.4 s, the Bas (9 h) was 0% and the Eos (9 h) was 0.6%. The Fbg (9 h) was 293.8 mg/dL, the Hb (9 h) was 12.7 g/dL and the Ht (9 h) was 39.7%. It also gave a Lym (9 h) of 73.6%, an MCH (9 h) of 20.3 pg and an MCHC (9 h) of 32%. The MCV (9 h) was 63.6 fL, the Mono (9 h) was 2.6% and the Neu (9 h) was 22%. For the same compound, the PT (9 h) was 16.2 s, the Plat (9 h) was 106.8 x10_4/uL and the RBC (9 h) was 624.6 x10_4/ul. For the same compound, the Ret (9 h) was 8.1%, the WBC (9 h) was 122.3 x10_2/uL and the KIDNEY_L (9 h) was 0.9 g. It also gave a KIDNEY_R (9 h) of 0.9 g, a KIDNEY_TOTAL (9 h) of 1.9 g and an LIVER (9 h) of 9.3 g. It also gave an A/G (9 h) of 1.2, an ALP (9 h) of 1650.8 IU/L and an ALT (9 h) of 40.2 IU/L. The AST (9 h) was 65.2 IU/L, the BUN (9 h) was 11.6 mg/dL and the CRE (9 h) was 0.2 mg/dL. The Ca (9 h) was 10.4 mg/dL, the Cl (9 h) was 106.2 meq/L and the DBIL (9 h) was 0.002 mg/dL. The GLC (9 h) was 192.2 mg/dL, the IP (9 h) was 9.6 mg/dL and the K (9 h) was 4.2 meq/L. For the same compound, the LDH (9 h) was 127.2 IU/L, the Na (9 h) was 140.6 meq/L and the PL (9 h) was 129.6 mg/dL. It also gave an RALB (9 h) of 3 g/dL, a TBIL (9 h) of 0.022 mg/dL and a TC (9 h) of 71.4 mg/dL. It also gave a TG (9 h) of 77 mg/dL, a TP (9 h) of 5.5 g/dL and a gamma-GTP (9 h) of 1.2 IU/L. For the same compound, the TERMINAL_BW (24 h) was 232.2 g, the APTT (24 h) was 20.7 s and the Bas (24 h) was 0%. It also gave an Eos (24 h) of 1.4%, a Fbg (24 h) of 297.2 mg/dL and a Hb (24 h) of 12.3 g/dL. For the same compound, the Ht (24 h) was 38.5%, the Lym (24 h) was 80.2% and the MCH (24 h) was 19.9 pg. It also gave an MCHC (24 h) of 31.9%, an MCV (24 h) of 62.6 fL and a Mono (24 h) of 2.6%. The Neu (24 h) was 16%, the PT (24 h) was 16.5 s and the Plat (24 h) was 114.4 x10_4/uL. The RBC (24 h) was 616.2 x10_4/ul, the Ret (24 h) was 7.5% and the WBC (24 h) was 87.8 x10_2/uL. It also gave a KIDNEY_L (24 h) of 1 g, a KIDNEY_R (24 h) of 1 g and a KIDNEY_TOTAL (24 h) of 2 g. For the same compound, the LIVER (24 h) was 10.5 g, the A/G (24 h) was 1.2 and the ALP (24 h) was 1448.8 IU/L. For the same compound, the ALT (24 h) was 44.6 IU/L, the AST (24 h) was 73.4 IU/L and the BUN (24 h) was 15.8 mg/dL. The CRE (24 h) was 0.2 mg/dL, the Ca (24 h) was 10.8 mg/dL and the Cl (24 h) was 105.6 meq/L. It also gave a DBIL (24 h) of 0 mg/dL, a GLC (24 h) of 184.2 mg/dL and an IP (24 h) of 7.6 mg/dL. The K (24 h) was 4.1 meq/L, the LDH (24 h) was 158.6 IU/L and the Na (24 h) was 141.8 meq/L. For the same compound, the PL (24 h) was 140 mg/dL, the RALB (24 h) was 3.1 g/dL and the TBIL (24 h) was 0.01 mg/dL. The TC (24 h) was 79 mg/dL, the TG (24 h) was 89.8 mg/dL and the TP (24 h) was 5.5 g/dL. For the same compound, the gamma-GTP (24 h) was 1.6 IU/L.
